Assay results reported in patent US11464770B2, “Anticancer pharmaceutical composition” (NATIONAL CANCER CENTER, priority 2016, dated 2022).
Like-named read-outs stand apart in the source and are kept apart here.

How the values were obtained:
[1] = tested on: lung cancer cell lines (e.g. NCI-H23, NCI-H1229); test: Cell based assay, cell viability (CellTiter-Glo), lung cancer cell lines; details: Homo sapiens, 72 hours treatment, CellTiter-Glo
Procedure: (§1) Commercially available bladder cancer, prostate cancer, lung cancer, breast cancer, blood cancer, pancreatic cancer, colorectal cancer, brain cancer, neuroblastoma, melanoma, liver cancer, cervical carcinoma, ovarian cancer, renal cancer, and papilloma cell lines were each treated with trypsin-EDTA and cultured, followed by being seeded in each well of a 96 well plate. After 24 hours of treatment at constant temperature, the respective cells were treated with the candidate compound so that a final concentration became 0 to 2 μM. The treated cells were additionally cultured for 72 hours, and cell viability was measured by using an ATP detection method (CellTiter-Glo® Luminescent Cell Viability Assay, Promega).

[2] = tested on: liver cancer cell lines; test: Cell based assay, cell viability (CellTiter-Glo), liver cancer cell lines; details: Homo sapiens, SK-HEP1; SK-HEP-1 cell line
Procedure: as §1

[3] = A549 cells, read-out: IC50, lung cancer cell line A549
[4] = DMS 114 cells, read-out: IC50, lung cancer cell line DMS 114
[5] = NCI-H23 cells, read-out: IC50, lung cancer cell line NCI-H23
[6] = NCI-H460 cells, read-out: IC50, lung cancer cell line NCI-H460
[7] = NCI-H522 cells, read-out: IC50, lung cancer cell line NCI-H522
[8] = NCI-H1299 cells, read-out: IC50, lung cancer cell line NCI-H1299
[9] = NCI-H1437 cells, read-out: IC50, lung cancer cell line NCI-H1437

| IC50 [1, 3] | IC50 [1, 4] | IC50 [1, 5] | IC50 [1, 6] | IC50 [1, 7] | IC50 [1, 8] | IC50 [1, 9] | IC50 [2] | Compound | IC50 ([1]; MRC-5 cells, read-out: IC50) |
| --- | --- | --- | --- | --- | --- | --- | --- | --- | --- |
| > 2 µM | > 2 µM | > 2 µM | > 2 µM | > 2 µM | > 2 µM | > 10 µM | > 2 µM | CC(=O)c1c([S+]([O-])CC#N)[nH]c2c(Br)ccc(Cl)c2c1=O (stereo not drawn) [Compound 65, 2-((3-acetyl-8-bromo-5-chloro-4-oxo-1,4-dihydroquinolin-2-yl)sulfinyl)acetonitrile] | > 2 µM |
| > 2 µM | > 2 µM | > 2 µM | > 2 µM | > 2 µM | > 2 µM | > 10 µM | > 2 µM | CC(=O)c1c(SCC#N)[nH]c2c(Br)ccc(Cl)c2c1=O [Compound 66, 2-((3-acetyl-8-bromo-5-chloro-4-oxo-1,4-dihydroquinolin-2-yl)thio)acetonitrile] | > 2 µM |
| > 2 µM | > 2 µM | > 2 µM | > 2 µM | > 2 µM | > 2 µM | > 10 µM | > 2 µM | CC(=O)c1c(S/C=C\C(=O)O)[nH]c2c(Br)ccc(Cl)c2c1=O [Compound 67, (Z)-3-((3-acetyl-8-bromo-5-chloro-4-oxo-1,4-dihydroquinolin-2-yl)thio)acrylic acid] | > 2 µM |
| 1.38 µM | > 2 µM | 0.77 µM | 1.41 µM | > 2 µM | 1.24 µM | > 10 µM | 0.86 µM | CC(=O)c1c([S+]([O-])Cc2ccc(S(F)(F)(F)(F)F)cc2)[nH]c2c(Br)ccc(Cl)c2c1=O (stereo not drawn) [Compound 68, 3-acetyl-8-bromo-5-chloro-2-((4-(pentafluoro-16-sulfanyl)benzyl)sulfinyl)quinolin-4(1H)-one] | 0.95 µM |
| 1.78 µM | > 2 µM | 1.13 µM | 1.62 µM | > 2 µM | 1.31 µM | > 10 µM | 1.04 µM | CC(=O)c1c([S+]([O-])Cc2ccc(S(F)(F)(F)(F)F)cc2F)[nH]c2c(Br)ccc(Cl)c2c1=O (stereo not drawn) [Compound 69, 3-acetyl-8-bromo-5-chloro-2-((2-fluoro-4-(pentafluoro-16-sulfanyl)benzyl)sulfinyl)quinolin-4(1H)-one] | 1.05 µM |
| 1.84 µM | > 2 µM | 0.96 µM | 1.51 µM | > 2 µM | 1.32 µM | > 10 µM | 1.09 µM | CC(=O)c1c([S+]([O-])Cc2cccc(S(F)(F)(F)(F)F)c2)[nH]c2c(Br)ccc(Cl)c2c1=O (stereo not drawn) [Compound 77, 3-acetyl-8-bromo-5-chloro-2-((3-(pentafluoro--sulfanyl)benzyl)sulfinyl)quinolin-4(1H)-one] | 1.06 µM |
| > 2 µM | > 2 µM | > 2 µM | > 2 µM | > 2 µM | > 2 µM | > 10 µM | > 2 µM | CC(=O)c1c([S+]([O-])Cc2ccc(SC(F)(F)F)cc2)[nH]c2c(Cl)ccc(Cl)c2c1=O (stereo not drawn) [Compound 79, 3-acetyl-5,8-dichloro-2-((4-((trifluoromethyl)thio)benzyl)sulfinyl)quinolin-4(1H)-one] | > 2 µM |
| > 2 µM | > 2 µM | > 2 µM | > 2 µM | > 2 µM | > 2 µM | > 10 µM | > 2 µM | CC(=O)c1c([S+]([O-])Cc2ccc(S(F)(F)(F)(F)F)cc2)[nH]c2c(F)ccc(F)c2c1=O (stereo not drawn) [Compound 80, 3-acetyl-5,8-difluoro-2-((4-(pentafluoro--sulfanyl)benzyl)sulfinyl)quinolin-4(1H)-one] | > 2 µM |
| > 2 µM | > 2 µM | > 2 µM | > 2 µM | > 2 µM | > 2 µM | > 10 µM | > 2 µM | CC(=O)c1c([S+]([O-])Cc2ccc(C(F)(F)F)o2)[nH]c2c(F)ccc(F)c2c1=O (stereo not drawn) [Compound 81, 3-acetyl-5,8-difluoro-2-(((5-(trifluoromethyl)furan-2-yl)methyl)sulfinyl)quinolin-4(1H)-one] | > 2 µM |
| > 2 µM | > 2 µM | > 2 µM | > 2 µM | > 2 µM | > 2 µM | > 10 µM | > 2 µM | CC(=O)c1c([S+]([O-])Cc2cc(C)on2)[nH]c2c(F)ccc(F)c2c1=O (stereo not drawn) [Compound 82, 3-acetyl-5,8-difluoro-2-(((5-methylisoxazol-3-yl)methyl)sulfinyl)quinolin-4(1H)-one] | > 2 µM |
| > 2 µM | > 2 µM | > 2 µM | > 2 µM | > 2 µM | > 2 µM | > 10 µM | > 2 µM | CC(C)C(=O)c1c([S+]([O-])Cc2ccc(SC(F)(F)F)cc2)[nH]c2c(F)ccc(F)c2c1=O (stereo not drawn) [Compound 85, 5,8-difluoro-3-isobutyryl-2-((4-((trifluoromethyl)thio)benzyl)sulfinyl)quinolin-4(1H)-one] | > 2 µM |
| > 2 µM | > 2 µM | > 2 µM | > 2 µM | > 2 µM | > 2 µM | > 10 µM | > 2 µM | O=C(c1ccccc1)c1c([S+]([O-])Cc2ccc(S(F)(F)(F)(F)F)cc2)[nH]c2c(F)ccc(F)c2c1=O (stereo not drawn) [Compound 87, 3-benzoyl-5,8-difluoro-2-((4-(pentafluoro--sulfanyl)benzyl)sulfinyl)quinolin-4(1H)-one] | > 2 µM |
| > 2 µM | > 2 µM | > 2 µM | > 2 µM | > 2 µM | > 2 µM | > 10 µM | > 2 µM | Cc1cc(C[S+]([O-])c2[nH]c3c(Cl)ccc(Cl)c3c(=O)c2C(=O)c2ccccc2)no1 (stereo not drawn) [Compound 88, 3-benzoyl-5,8-dichloro-2-(((5-methylisoxazol-3-yl)methyl)sulfinyl)quinolin-4(1H)-one] | > 2 µM |
| > 2 µM | > 2 µM | > 2 µM | > 2 µM | > 2 µM | > 2 µM | > 10 µM | > 2 µM | CC(=O)c1c([S+]([O-])CN2C(=O)c3ccccc3C2=O)[nH]c2c(Cl)ccc(Cl)c2c1=O (stereo not drawn) [Compound 90, 2-(((3-acetyl-5,8-dichloro-4-oxo-1,4-dihydroquinolin-2-yl)sulfinyl)methyl)isoindoline-1,3-dione] | > 2 µM |
| > 2 µM | > 2 µM | 1.8 µM | > 2 µM | > 2 µM | > 2 µM | > 10 µM | 1.72 µM | COC(=O)c1ccc(C[S+]([O-])c2[nH]c3c(Cl)ccc(Cl)c3c(=O)c2C(C)=O)cc1 (stereo not drawn) [Compound 91, methyl 4-(((3-acetyl-5,8-dichloro-4-oxo-1,4-dihydroquinolin-2-yl)sulfinyl)methyl)benzoate] | > 2 µM |
| > 2 µM | > 2 µM | > 2 µM | > 2 µM | > 2 µM | > 2 µM | > 10 µM | > 2 µM | COc1cccc2[nH]c(SCc3ccc(S(F)(F)(F)(F)F)cc3)c(C(C)=O)c(=O)c12 [Compound 92, 3-acetyl-5-methoxy-2-((4-(pentafluoro--sulfanyl)benzyl)thio)quinolin-4(1H)-one] | > 2 µM |
| > 2 µM | > 2 µM | > 2 µM | > 2 µM | > 2 µM | > 2 µM | > 10 µM | > 2 µM | COc1cccc2[nH]c([S+]([O-])Cc3ccc(S(F)(F)(F)(F)F)cc3)c(C(C)=O)c(=O)c12 (stereo not drawn) [Compound 93, 3-acetyl-5-methoxy-2-((4-(pentafluoro--sulfanyl)benzyl)sulfinyl)quinolin-4(1H)-one] | > 2 µM |
| > 2 µM | > 2 µM | 2.07 µM | > 2 µM | > 2 µM | > 2 µM | > 10 µM | > 2 µM | COc1cccc2[nH]c([S+]([O-])Cc3cc(C)on3)c(C(C)=O)c(=O)c12 (stereo not drawn) [Compound 94, 3-acetyl-5-methoxy-2-(((5-methylisoxazol-3-yl)methyl)sulfinyl)quinolin-4(1H)-one] | > 2 µM |
